We go through 21 molecules from US20160297833A1, “THIENOPYRIMIDINES AS MKNK1 AND MKNK2 INHIBITORS” (BAYER PHARMA AKTIENGESELLSCHAFT, priority 2013, published 2016).

In the assay the target is T1, human full-length MKNK1 (Homo sapiens, UniProt Q9BUB5, T385D).
T1 construct: GST (N); purchased Carna Biosciences 02-145; host or cells: insect cells (baculovirus expression system)
The assay is described as follows: MKNK1 kinase high ATP assay (TR-FRET). Format: biochemical. The following applies: for IC50: read-out: MKNK1 IC50; for Activity-Ratio MKNK1: Table 2, ratio of the IC50-value of an R-enantiomer and its corresponding S-enantiomer. As for the experimental part: MKNK1 Kinase High ATP Assay
MKNK1-inhibitory activity at high ATP of compounds of the present invention after their preincubation with MKNK1 was quantified employing the TR-FRET-based MKNK1 high ATP assay as described in the following paragraphs.
As substrate for the kinase reaction the biotinylated peptide biotin-Ahx-[…] (C-terminus in amide form) was used, which can be purchased e.g. from the company Biosyntan (Berlin-Buch, Germany).
For the assay 50 nL of a 100 fold concentrated solution of the test compound in DMSO was pipetted into a black low volume 384 well microtiter plate (Greiner Bio-One, Frickenhausen, Germany), 2 μL of a solution of MKNK1 in aqueous assay buffer [50 mM HEPES pH 7.5, 5 mM MgCl2, 1.0 mM dithiothreitol, 0.005% (v/v) Nonidet-P40 (Sigma)] was added and the mixture was incubated for 15 min at 22° C. to allow pre-binding of the test compounds to the enzyme before the start of the kinase reaction. Then the kinase reaction was started by the addition of 3 μL of a solution of adenosine-tri-phosphate (ATP, 3.3 mM=>final conc. in the 5 μL assay volume is 2 mM) and substrate (0.1 μM=>final conc. in the 5 μL assay volume is 0.06 μM) in assay buffer and the resulting mixture was incubated for a reaction time of 30 min at 22° C. The concentration of MKNK1 was adjusted depending of the activity of the enzyme lot and was chosen appropriate to have the assay in the linear range, typical concentrations were in the range of 0.003 μg/mL. The reaction was stopped by the addition of 5 μL of a solution of TR-FRET detection reagents (5 nM streptavidine-XL665 [Cisbio Bioassays, Codolet, France] and 1 nM anti-ribosomal protein S6 (pSer236)-antibody from Invitrogen [#44921G] and 1 nM LANCE EU-W1024 labeled ProteinG [Perkin-Elmer, product no. AD0071]) in an aqueous EDTA-solution (100 mM EDTA, 0.1% (w/v) bovine serum albumin in 50 mM HEPES pH 7.5).
The resulting mixture was incubated for 1 h at 22° C. to allow the formation of complex between the phosphorylated biotinylated peptide and the detection reagents. Subsequently the amount of phosphorylated substrate was evaluated by measurement of the resonance energy transfer from the Eu-chelate to the streptavidine-XL. Therefore, the fluorescence emissions at 620 nm and 665 nm after excitation at 350 nm were measured in a TR-FRET reader, e.g. a Rubystar (BMG Labtechnologies, Offenburg, Germany) or a Viewlux (Perkin-Elmer). The ratio of the emissions at 665 nm and at 622 nm was taken as the measure for the amount of phosphorylated substrate.

[1] abbreviates: Table 1, MKNK1 kinase high ATP assay, 2 mM ATP.

Read-outs that look alike come from different tables or passages of the source.

T1 sequence (Q9BUB5 1-424 isoform Q9BUB5-2 T344D): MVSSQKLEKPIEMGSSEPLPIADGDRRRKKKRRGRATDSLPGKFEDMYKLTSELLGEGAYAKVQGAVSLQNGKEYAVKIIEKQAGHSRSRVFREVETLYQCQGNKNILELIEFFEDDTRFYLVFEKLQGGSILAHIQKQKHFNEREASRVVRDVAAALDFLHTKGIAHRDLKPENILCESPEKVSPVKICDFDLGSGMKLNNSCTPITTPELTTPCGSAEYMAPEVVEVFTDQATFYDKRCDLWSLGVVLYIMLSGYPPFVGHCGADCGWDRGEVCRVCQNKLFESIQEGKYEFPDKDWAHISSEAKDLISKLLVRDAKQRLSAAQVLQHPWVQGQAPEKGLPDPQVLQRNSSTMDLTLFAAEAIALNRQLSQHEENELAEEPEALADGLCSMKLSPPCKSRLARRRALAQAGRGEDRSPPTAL

In the case of `CN(C)C(=O)[C@H]1CCc2c(sc3ncnc(Nc4cc5cn[nH]c5cc4OCCNC(=O)OC(C)(C)C)c23)C1` [Example 165, tert-butyl {2-[(5-{[(7S)-7-(dimethylcarbamoyl)-5,6,7,8-tetrahydro[1]benzothieno[2,3-d]pyrimidin-4-yl]amino}-1H-indazol-6-yl)oxy]ethyl}carbamate], the IC50 (as a rule, the midpoint of a concentration-inhibition curve) under setting [1] is 200 pM.

`CCOc1cc2[nH]ncc2cc1Nc1ncnc2sc3c(c12)CC[C@H](C(=O)N(C)CCC(F)(F)F)C3` [Example 66, (7S)-4-[(6-Ethoxy-1H-indazol-5-yl)amino]-N-methyl-N-(3,3,3-trifluoropropyl)-5,6,7,8-tetrahydro[1]benzothieno[2,3-d]pyrimidine-7-carboxamide]: the IC50 stood at 400 pM under setting [1]; 1700 pM (Table 3, example numbers of WO2013/174744(A1), not of this patent, pure enantiomer from chiral HPLC, absolute configuration at amide 'R or S'); 900 pM (Table 3, example numbers of WO2013/174744(A1), not of this patent, pure enantiomer from chiral HPLC, absolute configuration at amide 'S or R'). The “Activity Ratio MKNK1” value (Table 3, example numbers of WO2013/174744(A1), ratio of the IC50 values of the two enantiomers) is 1.9.

For `COCCN(CCO)C(=O)[C@H]1CCc2c(sc3ncnc(Nc4cc5cn[nH]c5cc4OC)c23)C1` [Example 42, (7S)—N-(2-Hydroxyethyl)-N-(2-methoxyethyl)-4-[(6-methoxy-1H-indazol-5-yl)amino]-5,6,7,8-tetrahydro[1]benzothieno[2,3-d]pyrimidine-7-carboxamide], the “Activity-Ratio MKNK1” value was determined as 33.2. The IC50 under setting [1] turned out to be 300 pM.

Take `COc1cc2[nH]ncc2cc1Nc1ncnc2sc3c(c12)CC[C@H](C(=O)N(CCO)C1COC1)C3` [Example 37, (7S)—N-(2-Hydroxyethyl)-4-[(6-methoxy-1H-indazol-5-yl)amino]-N-(oxetan-3-yl)-5,6,7,8-tetrahydro[1]benzothieno[2,3-d]pyrimidine-7-carboxamide]: the half-maximal inhibitory concentration (IC50) under setting [1] came to 300 pM.

With `CN(C)C(=O)[C@H]1CCc2c(sc3ncnc(Nc4cc5cn[nH]c5cc4OCCCN4CCCCC4)c23)C1` [Example 278, (7S)—N,N-Dimethyl-4-({6-[3-(piperidin-1-yl)propoxy]-1H-indazol-5-yl}amino)-5,6,7,8-tetrahydro[1]benzothieno[2,3-d]pyrimidine-7-carboxamide], under setting [1], the IC50 worked out at 53700 pM.

Turning to `COc1cc2[nH]ncc2cc1Nc1ncnc2sc3c(c12)CC[C@H](C(=O)N(C)CCCN(C)C)C3` [Example 54, (7S)—N-[3-(Dimethylamino)propyl]-4-[(6-methoxy-1H-indazol-5-yl)amino]-N-methyl-5,6,7,8-tetrahydro[1]benzothieno[2,3-d]pyrimidine-7-carboxamide], the IC50 under setting [1] turned out to be 400 pM.

`CC(C)Oc1cc2[nH]ncc2cc1Nc1ncnc2sc3c(c12)CC[C@H](C(=O)N(C)CCC(F)(F)F)C3` [Example 125, (7S)—N-Methyl-4-{[6-(propan-2-yloxy)-1H-indazol-5-yl]amino}-N-(3,3,3-trifluoropropyl)-5,6,7,8-tetrahydro[1]benzothieno[2,3-d]pyrimidine-7-carboxamide]: the concentration for half-maximal inhibition (IC50) under setting [1] was 400 pM.

As for `COc1cc2[nH]ncc2cc1Nc1ncnc2sc3c(c12)CC[C@H](C(=O)N(CCCN(C)C)CCCN(C)C)C3` [Example 59, (7S)—N,N-bis[3-(Dimethylamino)propyl]-4-[(6-methoxy-1H-indazol-5-yl)amino]-5,6,7,8-tetrahydro[1]benzothieno[2,3-d]pyrimidine-7-carboxamide], the IC50 under setting [1] was 200 pM.

`COc1cc2[nH]ncc2cc1Nc1ncnc2sc3c(c12)CC[C@H](C(=O)N(C)CCC(=O)N(C)C)C3` [Example 55, (7S)—N-[3-(Dimethylamino)-3-oxopropyl]-4-[(6-methoxy-1H-indazol-5-yl)amino]-N-methyl-5,6,7,8-tetrahydro[1]benzothieno[2,3-d]pyrimidine-7-carboxamide]: the IC50 under setting [1] came to 100 pM.

`CN(C)C(=O)[C@H]1CCc2c(sc3ncnc(Nc4cc5cn[nH]c5cc4OCCN4CCCC4=O)c23)C1` [Example 193, (7S)—N,N-Dimethyl-4-({6-[2-(2-oxopyrrolidin-1-yl)ethoxy]-1H-indazol-5-yl}amino)-5,6,7,8-tetrahydro[1]benzothieno[2,3-d]pyrimidine-7-carboxamide]: under setting [1], the 50% inhibitory concentration (IC50) came to 222000 pM.

`C[C@H](CN)Oc1cc2[nH]ncc2cc1Nc1ncnc2sc3c(c12)CC[C@H](C(=O)N1CCOC[C@H]1C)C3` [Example 144, {(7S)-4-[(6-{[(2R)-1-Aminopropan-2-yl]oxy}-1H-indazol-5-yl)amino]-5,6,7,8-tetrahydro[1]benzothieno[2,3-d]pyrimidin-7-yl}[(3R)-3-methylmorpholin-4-yl]methanone]: under setting [1], the half-maximal inhibitory concentration (IC50) was determined as 1000 pM.

Consider `C[C@@H]1CN(C(=O)[C@H]2CCc3c(sc4ncnc(Nc5cc6cn[nH]c6cc5F)c34)C2)C[C@@H](C)O1` [Example 224, [(2R,6R)-2,6-Dimethylmorpholin-4-yl]{(7S)-4-[(6-fluoro-1H-indazol-5-yl)amino]-5,6,7,8-tetrahydro[1]benzothieno[2,3-d]pyrimidin-7-yl}methanone], for which, under setting [1], the IC50 worked out at 3700 pM.

On to `CN(C)C(=O)[C@H]1CCc2c(sc3ncnc(Nc4cc5cn[nH]c5cc4F)c23)C1` [Example 228, (7S)-4-[(6-Fluoro-1H-indazol-5-yl)amino]-N,N-dimethyl-5,6,7,8-tetrahydro[1]benzothieno[2,3-d]pyrimidine-7-carboxamide], for which, under setting [1], the IC50 was 6100 pM.

On to `CC(C)N(C)C(=O)[C@H]1CCc2c(sc3ncnc(Nc4ccc5[nH]ncc5c4)c23)C1` [Example 7, (7S)-4-(1H-Indazol-5-ylamino)-N-methyl-N-(propan-2-yl)-5,6,7,8-tetrahydro[1]benzothieno[2,3-d]pyrimidine-7-carboxamide], for which the IC50 under setting [1] came to 6000 pM.

For `COc1cc2[nH]ncc2cc1Nc1ncnc2sc3c(c12)CC[C@H](C(=O)N(CCO)CCCN(C)C)C3` [Example 58, (7S)—N-[3-(Dimethylamino)propyl]-N-(2-hydroxyethyl)-4-[(6-methoxy-1H-indazol-5-yl)amino]-5,6,7,8-tetrahydro[1]benzothieno[2,3-d]pyrimidine-7-carboxamide], under setting [1], the IC50 stood at 300 pM.

For the molecule `CC(C)Oc1cc2[nH]ncc2cc1Nc1ncnc2sc3c(c12)CC[C@H](C(=O)N(C)CC(C)(C)O)C3` [Example 126, (7S)—N-(2-Hydroxy-2-methylpropyl)-N-methyl-4-{[6-(propan-2-yloxy)-1H-indazol-5-yl]amino}-5,6,7,8-tetrahydro[1]benzothieno[2,3-d]pyrimidine-7-carboxamide], the IC50 under setting [1] was found to be 300 pM.

In the case of `CN(C)C(=O)[C@H]1CCc2c(sc3ncnc(Nc4cc5cn[nH]c5cc4OCC4CCOCC4)c23)C1` [Example 201, (7S)—N,N-Dimethyl-4-{[6-(tetrahydro-2H-pyran-4-ylmethoxy)-1H-indazol-5-yl]amino}-5,6,7,8-tetrahydro[1]benzothieno[2,3-d]pyrimidine-7-carboxamide], the IC50 under setting [1] was found to be 23600 pM.

With `COc1cc2[nH]ncc2cc1Nc1ncnc2sc3c(c12)CC[C@H](C(=O)N1CC2(COC2)C1)C3` [Example 32, {(7S)-4-[(6-Methoxy-1H-indazol-5-yl)amino]-5,6,7,8-tetrahydro[1]benzothieno[2,3-d]pyrimidin-7-yl}(2-oxa-6-azaspiro[3.3]hept-6-yl)methanone], the half-maximal inhibitory concentration (IC50) under setting [1] came to 1000 pM.

On to `CN(C)C(=O)[C@H]1CCc2c(sc3ncnc(Nc4cc5cn[nH]c5cc4Br)c23)C1` [Example 181, (7S)-4-[(6-Bromo-1H-indazol-5-yl)amino]-N,N-dimethyl-5,6,7,8-tetrahydro[1]benzothieno[2,3-d]pyrimidine-7-carboxamide], for which the 50% inhibitory concentration (IC50) under setting [1] is 3600 pM.

Take `CC(C)Oc1cc2[nH]ncc2cc1Nc1ncnc2sc3c(c12)CC[C@H](C(=O)N(C)C)C3` [Example 78, (7S)—N,N-Dimethyl-4-{[6-(propan-2-yloxy)-1H-indazol-5-yl]amino}-5,6,7,8-tetrahydro[1]benzothieno[2,3-d]pyrimidine-7-carboxamide]: the “Activity-Ratio MKNK1” value was 42.9. In addition, under setting [1], the IC50 came to 300 pM.

Consider `CN(C)CCCOc1cc2[nH]ncc2cc1Nc1ncnc2sc3c(c12)CC[C@H](C(=O)N(C)C)C3` [Example 203, (7S)-4-({6-[3-(Dimethylamino)propoxy]-1H-indazol-5-yl}amino)-N,N-dimethyl-5,6,7,8-tetrahydro[1]benzothieno[2,3-d]pyrimidine-7-carboxamide], for which the 50% inhibitory concentration (IC50) under setting [1] stood at 17100 pM.
